Measured values as given in patent US6596773B2, “Phenyl substituted pyridine and benzene derivatives” (Hoffmann-La Roche Inc., priority 1999, dated 2003).

How the values were obtained:
human NK1 receptor = biological target: T1, human NK1 receptor (Homo sapiens, UniProt P25103); test: NK1 receptor binding assay, displacement of [3H]substance P; details: human NK1 receptors in CHO cells (Semliki virus expression system), [3H]substance P 0.6 nM, 60 min at room temperature; read-out: affinity to the NK-1 receptor, given as pKi (converted)
T1 construct: expressed in transfected cells; host or cells: CHO cells infected using the Semliki virus expression system; membrane suspension
T1 sequence (P25103 whole entry): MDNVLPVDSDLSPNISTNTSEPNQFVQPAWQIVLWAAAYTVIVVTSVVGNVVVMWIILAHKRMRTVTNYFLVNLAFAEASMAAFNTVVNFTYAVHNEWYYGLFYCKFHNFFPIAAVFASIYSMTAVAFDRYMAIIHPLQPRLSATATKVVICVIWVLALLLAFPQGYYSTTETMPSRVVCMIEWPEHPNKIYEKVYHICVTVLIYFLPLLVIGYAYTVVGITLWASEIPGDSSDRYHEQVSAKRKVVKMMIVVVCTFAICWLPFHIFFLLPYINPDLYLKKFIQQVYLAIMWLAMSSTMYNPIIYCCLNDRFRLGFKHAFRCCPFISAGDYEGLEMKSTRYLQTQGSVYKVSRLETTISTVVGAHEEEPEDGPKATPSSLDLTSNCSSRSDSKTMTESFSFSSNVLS
Procedure: The affinity of test compounds for the NK1 receptor was evaluated at human NK1 receptors in CHO cells infected with the human NK1 receptor (using the Semliki virus expression system) and radiolabelled with [3H]substance P (final concentration 0.6 nM). Binding assays were performed in HEPES buffer (50 mM, pH 7.4) containing BSA (0.04%) leupeptin ([…]), MnCl2 (3 mM) and phosphoramidon ([…]). Binding assays consisted of […] of membrane suspension (1.25×10^5 cells/assay tube), 0.125 ml of buffer of displacing agent and […] of [3H]substance P. Displacement curves were determined with at least seven concentrations of the compound. The assay tubes were incubated for 60 min at room temperature after which time the tube contents were rapidly filtered under vacuum through GF/C filters presoaked for 60 min with PEI (0.3%) with 2×2 ml washed of HEPES buffer (50 mM, pH 7.4). The radioactivity retained on the filters was measured by scintillation counting. All assays were performed in triplicate in at least 2 separate experiments.

| SMILES | melting point | Ki (human NK1 receptor) [nM] |
| --- | --- | --- |
| CN1CCN(c2cc(C(=O)c3ccccc3)c(C(=O)N(C)Cc3cc(C(F)(F)F)cc(C(F)(F)F)c3)cn2)CC1.Cl | 105 °C (dec.) | – |
| CN1CCN(c2cc(C(=O)c3ccccc3Cl)c(C(=O)N(C)Cc3cc(C(F)(F)F)cc(C(F)(F)F)c3)cn2)CC1.Cl | 145 °C (dec.) | – |
| CN(C(=O)C(C)(C)c1cc(C(F)(F)F)cc(C(F)(F)F)c1)c1ccc(Cl)cc1C(=O)c1ccccc1 [Example 2, N-(2-Benzoyl-4-chloro-phenyl)-2-(3,5-bis-trifluoromethyl-phenyl)-N-methyl-isobutyramide] | 89 to 91 °C | – |
| CN(Cc1cc(C(F)(F)F)cc(C(F)(F)F)c1)C(=O)c1cnc(N2CCOCC2)cc1Oc1ccccc1 [Example 28, N-(3,5-Bis-trifluoromethyl-benzyl)-N-methyl-6-morpholin-4-yl-4-phenoxy-nicotinamide] | – | 13.8 |
| CN(Cc1cc(C(F)(F)F)cc(C(F)(F)F)c1)C(=O)c1cnc(N2CCOCC2)cc1Oc1ccccc1Cl [Example 29, N-(3,5-Bis-trifluoromethyl-benzyl)-4-(2-chloro-phenoxy)-N-methyl-6-morpholin-4-yl-nicotinamide] | – | 1.74 |
| CN1CCN(c2cc(Oc3ccccc3Cl)c(C(=O)N(C)Cc3cc(C(F)(F)F)cc(C(F)(F)F)c3)cn2)CC1 [Example 30, N-(3,5-Bis-trifluoromethyl-benzyl)-4-(2-chloro-phenoxy)-N-methyl-6-(4-methyl-piperazin-1-yl)-nicotinamide] | – | 3.8 |
| Cc1ccccc1Oc1cc(N2CCOCC2)ncc1C(=O)N(C)Cc1cc(C(F)(F)F)cc(C(F)(F)F)c1 [Example 31, N-(3,5-Bis-trifluoromethyl-benzyl)-N-methyl-6-morpholin-4-yl-4-o-tolyloxy-nicotinamide] | – | 2.75 |
